Test results: patent US5064817A, “Phospholipase A2 inhibiting compositions and their use” (Yissum Research Development Company of Hebrew University of …, priority 1987, dated 1991)
Several values for one entry are separate records, joined by “and”; a condition that tells them apart may be missing. Equal values may be shown once.

Tests used:
[1] = test system: crude phospholipase A2 (extracted from human polymorphonuclear leukocytes); assay: Inhibition of phospholipase A2 from human PMN leukocytes (14C-oleate-labelled E. coli substrate); type: biochemical; settings: 37°, 60 min, pH 7.0, 0.5 mmol/l CaCl2
Procedure: The reaction is stopped by extraction with modified Dole reagent. Free oleic acid is separated on a disposable silicic acid (Kieselgel G 100) column and the radioactivity is determined. Percent inhibition is calculated after subtracting a blank (assay mixture without enzyme).

[2] = test system: Prostaglandin (PGE2) production in mouse peritoneal macrophages; assay: Inhibition of PGE2 production in mouse peritoneal macrophages; type: cell-based; settings: 10^-5 M phorbol-myristate-acetate, 2 hours, repeated lines per PLI type
Procedure: Peritoneal cells from NMRI mice were obtained by lavage with Dulbeccos MEM. The cells were washed and plated at 2×10^4 /well in Dulbeccos MEM with FCS in 96-well plates. After 2 hours (or overnight) incubation at 37°, the adherent macrophages were washed 3 times. The medium was replaced by Dulbeccos MEM with lactalbumin hydrolysate. Test compounds were suspended in water. One hour later, the macrophages were stimulated with 10^-5 M phorbol-myristate-acetate. Another 2 hours later, PGE2 and LTC4 were measured int he supernatants by radioimmunoassay. The results are expressed as IC50 of PGE2 - and LTC4 -production.

[3] = test system: human platelet aggregation; assay: Inhibition of human platelet aggregation in platelet-rich plasma; type: cell-based; settings: human PRP
Procedure: (§1) Platelet-rich plasma (PRP) was obtained from human donors by centrifugation. Platelet aggregation at 37° C. and TXB2 secretion were induced by the addition of an aggregating agent (inducer) as indicated in the table below. Platelet aggregation was determined by measurement of the suspension optical density in a double beam aggregometer. Results are expressed as % of the control aggregation obtained by the addition of the inducer in the absence of an inhibitor. TXB2, secretion to the extracellular medium, was determined by radioimmunoassay. When the test PLI was applied, the PRP was incubated with the inhibitor for 10 min at 37° C., prior to induction of aggregation.

[4] = test system: PLA2-oedema (purified phospholipase A2 from porcine pancreas, subplantar); assay: Inhibition of PLA2-oedema in rats (paw plethysmometry); type: in vivo; settings: rat
Procedure: By subplantar injection of 200 U PLA2 (ca. 0.3 mg purified phospholipase A2 from porcine pancreas, Boehringer Mannheim) in 100 μl physiological saline into the left hind paw of male or female rats (LEW/TIF, ca. 200 g body weight, 5 animals per group) a localized edema was induced and its intensity was determined plethysmometrically 3 and 5 hours later. Test compounds were suspended in 0.75% methylcellulose and administered i.p. (5 ml/kg) 1 hour prior to the PLA2 injection. The edema-inhibiting effect was expressed as percent inhibition in comparison to vehicle-treated controls.

[5] = test system: Thromboxane (TXB2) secretion by human platelets; assay: Inhibition of thromboxane (TXB2) secretion by human platelets; type: cell-based; settings: human PRP
Procedure: as §1

[6] = test system: prostacyclin (6-keto-PGF1 α) production in cultured adrenal capillary endothelial cells; assay: Inhibition of prostacyclin production in endothelial cells; type: cell-based; settings: for % Inhibition of prostacyclin production: PLI 1 mg/ml + Bradykinin 1 μM; for 6-keto-PFG1α PROD.: PLI 1 mg/ml + Bradykinin 1 μM (Bradykinin alone 201.9 ± 21.6)
Procedure: Method: Cultured adrenal capillary endothelial cells were stimulated to produce prostacyclin (6-keto-PGF1 α) by bradykinin in the absence and presence of CMS or HME. The prostacyclin, secreted to the culture medium was determined by radioimmunoassay.

[7] = test system: Serotonin secretion in Rat Basophilic Leukemia (RBL) cells; assay: Inhibition of serotonin secretion in RBL cells; type: cell-based; settings: HMS 1.5 mg/ml, ionophore A23187 0.3 μM
Procedure: Cultured RBL were incubated with tritiated serotonin (10^7 DPM/ml/10^6 cell) for 2 hours, then washed. Serotinin secretion was activated in the absence or presence of HMS (1.5 mg/ml) by the addition of the ionophore A23187 (0.3 μM) for the desired time. The radioactive serotonin accumulated in the culture medium during the activation period was determined. In the absence of HMS, approximately 1.3 and 1.9 DPM×10^5 was excreted in 15 and 30 minutes, respectively, whereas in the presence of the HMS, only about 0.3 DPM×10^5 was secreted in each of these time periods.

[8] = test system: Phospholipase A2 (PLA2) activity in Rat Basophilic Leukemia (RBL) cells; assay: Inhibition of PLA2 activity in RBL cells (C6-NBD-PC hydrolysis); type: cell-based
Procedure: Cultured RBL cells were incubated with the fluorescent substrate of PLA2 (C6 -NBD-PC) as described by Yedgar et al. (1986) FEBS Letters, 200:165-168. After 1 hour of incubation, the cultures were subjected to lipid extraction and determination of C6 -NBD-PC hydrolysed as previously described.

[9] = test system: adjuvant arthritis (Freunds adjuvant paw swelling); assay: Adjuvant arthritis model of inflammation; type: in vivo, rat; settings: for gross signs of toxicity: 70 mg/kg subcutaneously, two week dosing period; for paw diameter (measured with calipers): arthritic animals, by day 14; for paw diameter (measured with calipers) / decrease in paw swelling, injected paw / decrease in paw swelling, noninjected paw: 70 mg/kg subcutaneously day 3 to day 14; for decrease in paw swelling, injected paw / decrease in paw swelling, noninjected paw: arthritic rats, day 14
Procedure: Two compounds (CMS and HMS) were tested in the adjuvant arthritis model of inflammation. Paw swelling is induced by an injection of Freunds adjuvant into the right hind paw. Systemic inflammation spreads to the controlateral paw within 2 weeks. The compounds were administered subcutaneously from day 3 to day 14 at a dose of 70 mg/kg. […] CMS decreased noninjected paw swelling 51% (P≤0.005) and injected paw swelling 30% (P≤0.001). […] No drug treated group lost weight compared to the arthritic controls.

[10] = line (e), 1 × i.p., dose not given
[11] = 100 mg/kg i.p., 1 hour prior to PLA2
[12] = 1 × 20 mg/kg i.p., 1 hour prior to PLA2
[13] = Epinephrine 0.8 μg/ml, PLI 1.5 mg/ml

In the case of “Dextranhydrazide-dodecanedioic-phosphatidylserine [Dex-Ac-PS, reference compound]”, the “Inhibition of PLA2 from human PMN, IC50” value [1] is reported as 720 µg/mL, the “IC50 for PGE2 production” value [2] is reported as 300 µg/mL and 600 µg/mL and the “Aggregation (% of control)” value ([3]; ADP 2 μg/ml, PLI 3.0 mg/ml) is reported as 14 % of control. The “Aggregation (% of control)” value ([3]; Epinephrine 0.8 μg/ml, PLI 6.5 mg/ml) was 19 % of control.

For Hemaccellphosphatidylethanolamine [HME], the “% Inhibition of PLA2-oedema, 3 hours” value [4, 10] was 0%, the “% Inhibition of PLA2-oedema, 5 hours” value [4, 10] was 0% and the “% Inhibition of PLA2-oedema, 3 hours” value ([4]; line (f), i.p., dose not given) was 27%. For the same substance, the “% Inhibition of PLA2-oedema, 5 hours” value ([4]; line (f), i.p., dose not given) was 25%, the “% Inhibition of PLA2-oedema, 3 hours” value ([4]; line (g), i.p., dose not given) was 53% and the “% Inhibition of PLA2-oedema, 5 hours” value ([4]; line (g), i.p., dose not given) was 45%. The “Aggregation (% of control)” value ([3]; ADP 2 μg/ml, PLI 0.70 mg/ml) was 6 % of control, the “Aggregation (% of control)” value ([3]; Collagen 40 μg/ml, PLI 0.85 mg/ml) was 13 % of control and the “Aggregation (% of control)” value ([3]; Epinephrine 0.8 μg/ml, PLI 0.75 mg/ml) was 9 % of control. The TXB2 secreted ([5]; ADP 2 μg/ml, PLI 0.70 mg/ml (without PLI 82 ± 4)) was 14 ± 7 ng/mL, the TXB2 secreted ([5]; Collagen 40 μg/ml, PLI 0.85 mg/ml (without PLI 42 ± 6)) was 17 ± 7 ng/mL and the “% Inhibition of prostacyclin production” value [6] was 82%. For the same substance, the “6-keto-PFG1α PROD.” value [6] was 36.4 ± 7.2 PG/10^-6 Cells.

In the case of Hemaccellphosphatidylserine [HMS], the “Inhibition of PLA2 from human PMN, IC50” value [1] is reported as 57 µg/mL, the “% Inhibition of PLA2-oedema, 3 hours” value [4, 11] is reported as 63% and the “% Inhibition of PLA2-oedema, 5 hours” value [4, 11] is reported as 80%. The “% Inhibition of PLA2-oedema, 3 hours” value [4, 12] was 36%, the “% Inhibition of PLA2-oedema, 5 hours” value [4, 12] was 62% and the “IC50 for PGE2 production” value [2] was > 100 µg/mL. For the same substance, the “radioactive serotonin secreted to culture medium” value ([7]; 15 minutes (without HMS approx. 1.3)) was “about 0.3 DPM×10^5”, the “radioactive serotonin secreted to culture medium” value ([7]; 30 minutes (without HMS approx. 1.9)) was “about 0.3 DPM×10^5” and the C6-NBD-PC hydrolysed ([8]; HMS 0.5 mg/ml (control 1.42 ± 0.19)) was 0.37 ± 0.04 nmole/mg cell protein-hour. For the same substance, the C6-NBD-PC hydrolysed ([8]; HMS 1.5 mg/ml (control 1.42 ± 0.19)) was 0.11 ± 0.07 nmole/mg cell protein-hour, the “Aggregation (% of control)” value ([3]; Epinephrine 0.8 μg/ml, PLI 1.2 mg/ml) was 2 % of control and the “gross signs of toxicity” value [9] was “no gross signs of toxicity”. The “paw diameter (measured with calipers)” value [9] was “significantly decreased”, the “decrease in paw swelling, injected paw” value [9] was 19% and the “decrease in paw swelling, noninjected paw” value [9] was 43%.

In the case of “alginic acid phosphatidylethanolamine [ALE]”, the “Aggregation (% of control)” value ([3]; Epinephrine 0.8 μg/ml, PLI 0.7 mg/ml) is reported as 9 % of control.

In the case of alginic acid phosphatidylserine [ALS], the “Aggregation (% of control)” value [3, 13] is reported as 5 % of control.

“carboxymethylcellulose phosphatidylethanolamine [CME]” was tested, and the “Aggregation (% of control)” value [3, 13] was 0 % of control.

“carboxymethylcellulosephosphatidylserine [CMS]” was tested, and the “Inhibition of PLA2 from human PMN, IC50” value [1] was 40 µg/mL, the “% Inhibition of PLA2-oedema, 3 hours” value [4, 11] was 51% and the “% Inhibition of PLA2-oedema, 5 hours” value [4, 11] was 54%. The “% Inhibition of PLA2-oedema, 3 hours” value [4, 12] was 15%, the “% Inhibition of PLA2-oedema, 5 hours” value [4, 12] was 29% and the “IC50 for PGE2 production” value [2] was 100 µg/mL and > 100 µg/mL. The “Aggregation (% of control)” value [3, 13] was 0 % of control, the “% Inhibition of prostacyclin production” value [6] was 61% and the “6-keto-PFG1α PROD.” value [6] was 78.7 ± 6.8 PG/10^-6 Cells. For the same substance, the “gross signs of toxicity” value [9] was “no gross signs of toxicity”, the “paw diameter (measured with calipers)” value [9] was “significantly decreased” and the “decrease in paw swelling, injected paw” value [9] was 30%. The “decrease in paw swelling, noninjected paw” value [9] was 51%.
